# What was measured:
# Format in all cases: cell-based
# [1] = tested on: Mycosphaerella arachidis; assay: Efficacy of purified CtmC in-vitro, microtiter plate growth inhibition; details: rate 10 ppm; approximately 5-6 days at 24° C.
# Experimental: (§1) CtmC was dissolved in DMSO (Dimethylsulfoxid) to a final concentration of 1000 ppm to create a stock solution. A second dilutions of 1:10 was made in water+0.025% Tween 20. From this second dilution 10 μl are dispensed into a 96-well plate. To each well, 90 μl of medium with fungal spores are added and mixed, resulting in final CtmC concentrations of 10 ppm. All wells containing CtmC also contain DMSO (1%) and Tween 20 (0.0025%).
# Mycosphaerella arachidis (Brown leaf spot of groundnut): Conidia of the fungus from cryogenic storage were directly mixed into nutrient broth (PDB potato dextrose broth). After placing a solution of the test compounds into a microtiter plate (96-well format) the nutrient broth containing the fungal spores was added. The test plates were incubated at 24° C. and the inhibition of growth was determined photometrically after approximately 5-6 days at 620 nm.
# [2] = tested on: Gibberella zeae (Fusarium graminearum); assay: microbe, parasite or virus in culture; details: read-out: % Efficacy
# [3] = tested on: Botrytis cinerea; assay: Efficacy of purified CtmC in-vitro, microtiter plate growth inhibition; details: rate 10 ppm; 72 hrs at 24° C.
# Experimental: as §1
# Botrytis cinerea (gray mould): Conidia of the fungus from cryogenic storage were directly mixed into nutrient broth (PDB potato dextrose broth). After placing a solution of the test compounds into a microtiter plate (96-well format) the nutrient broth containing the fungal spores was added.
# [4] = tested on: Cercospora kikuchii K6080; assay: Efficacy of purified CtmC alone in-vitro, 96 well plate, OD 620 nm; details: CtmC 10 ppm
# Experimental: (§2) CtmC was dissolved in DMSO (Dimethylsulfoxid) to a final concentration of 1000 ppm to create a stock solution. A second dilutions of 1:10 was made in water+0.025% Tween 20. From this second dilution 10 μl are dispensed into a 96 well plate. To each well, 90 μl of medium (PDB—potato dextrose broth, plus 0.3% agar) with fungal spores are added and mixed, resulting in final CtmC concentrations of 10 ppm. All wells containing CtmC also contain DMSO (1%) and Tween 20 (0.0025%). In the following table 4 some of the species were tested using several distinct isolates (internal strain number indicated) to understand variability among different isolates of the same species sampled in different locations, producing different mycotoxins (genus Fusarium), or expressing various tolerances to fungicides of the SDHI (Succinate Dehydrogenase Inhibitor), SBI (Sterol Biosynthesis Inhibitors) and/or QoI (quinone outside inhibitors) classes (example: Zymoseptoria tritici). Different isolates had variable inoculum density and number of biological repicas, as indicated.
# [5] = tested on: Zymoseptoria tritici K7953; assay: as above; details: CtmC 10 ppm
# Experimental: as §2
# [6] = tested on: Fusarium poae K8039; assay: as above; details: CtmC 10 ppm
# Experimental: as §2
# [7] = tested on: Ustilago segetum var. tritici K5349; assay: as above; details: CtmC 10 ppm
# Experimental: as §2
# [8] = tested on: Ramularia collo-cygni K6218; assay: as above; details: CtmC 10 ppm
# Experimental: as §2
# [9] = tested on: Colletotrichum lindemuthianum K5893; assay: as above; details: CtmC 10 ppm
# Experimental: as §2
# [10] = tested on: Microdochium majus K7482; assay: as above; details: CtmC 10 ppm
# Experimental: as §2
# [11] = tested on: Venturia inaequalis K6222; assay: as above; details: CtmC 10 ppm
# Experimental: as §2
# [12] = tested on: Fusarium tricinctum K7454; assay: as above; details: CtmC 10 ppm
# Experimental: as §2
# [13] = tested on: Cochliobolus sativus K5817; assay: as above; details: CtmC 10 ppm
# Experimental: as §2
# [14] = tested on: Fusarium culmorum K5488; assay: as above; details: CtmC 10 ppm
# Experimental: as §2
# [15] = tested on: Monographella nivalis K7484; assay: as above; details: CtmC 10 ppm
# Experimental: as §2
# [16] = tested on: Zymoseptoria tritici K6318; assay: as above; details: CtmC 10 ppm
# Experimental: as §2
# [17] = tested on: Colletotrichum orbiculare K5770; assay: as above; details: CtmC 10 ppm
# Experimental: as §2
# [18] = tested on: Fusarium tricinctum K7452; assay: as above; details: CtmC 10 ppm
# Experimental: as §2
# [19] = tested on: Zymoseptoria tritici K6420; assay: as above; details: CtmC 10 ppm
# Experimental: as §2
# [20] = tested on: Gibberella avenacea K6939; assay: as above; details: CtmC 10 ppm
# Experimental: as §2
# [21] = tested on: Gibberella fujikuroi K5299; assay: as above; details: CtmC 10 ppm
# Experimental: as §2
# [22] = tested on: Rhynchosporium secalis K5917; assay: as above; details: CtmC 10 ppm
# Experimental: as §2
# [23] = tested on: Fusarium culmorum K6937; assay: as above; details: CtmC 10 ppm
# Experimental: as §2
# [24] = tested on: Fusarium avenaceum K6940; assay: as above; details: CtmC 10 ppm
# Experimental: as §2
# [25] = tested on: Septoria glycines K5204; assay: as above; details: CtmC 10 ppm
# Experimental: as §2
# [26] = tested on: Fusarium culmorum K8196; assay: as above; details: CtmC 10 ppm
# Experimental: as §2
# [27] = tested on: Cercospora sojina K5703; assay: as above; details: CtmC 10 ppm
# Experimental: as §2
# [28] = tested on: Zymoseptoria tritici K6105; assay: as above; details: CtmC 10 ppm
# Experimental: as §2
# [29] = tested on: Corynespora cassiicola K5577; assay: as above; details: CtmC 10 ppm
# Experimental: as §2
compound,measurement,setting,value
"C=C1NC(=O)CNC(=O)[C@H](CCCCN)NC(=O)[C@@]2(C)NC(=O)/C(=C/C)NC(=O)[C@H]3CSC(=N3)[C@@H](CC(N)=O)CC(=O)c3ccc(nc3[C@@H](C)NC(=O)[C@@H]3CCCN3C1=O)-c1nc(cs1)C1=N[C@H](CS1)C(=O)NC(=C)c1nc(cs1)-c1nc(cs1)C1=N[C@@H](CS1)C(=O)N[C@@H](C(=O)O)CS2 [CtmC, cyclothiazomycin C]",control of fungal growth (%),[1],100%
same,Emax at 20 ppm,[2],37%
same,control of fungal growth (%),[3],90%
same,efficacy (%),[4],100%
same,optical density at 620 nm,"[4]; blank 0.044, untreated 0.215",0.043
same,efficacy (%),[5],77%
same,optical density at 620 nm,"[5]; blank 0.055, untreated 0.235",0.096
same,efficacy (%),[6],62%
same,optical density at 620 nm,"[6]; blank 0.050, untreated 0.619",0.267
same,efficacy (%),[7],97%
same,optical density at 620 nm,"[7]; blank 0.044, untreated 0.304",0.051
same,efficacy (%),[8],60%
same,optical density at 620 nm,"[8]; blank 0.043, untreated 0.231",0.119
same,efficacy (%),[9],45%
same,optical density at 620 nm,"[9]; blank 0.046, untreated 0.373",0.225
same,efficacy (%),[10],96%
same,optical density at 620 nm,"[10]; blank 0.050, untreated 0.228",0.057
same,efficacy (%),[11],86%
same,optical density at 620 nm,"[11]; blank 0.044, untreated 0.320",0.082
same,efficacy (%),[12],65%
same,optical density at 620 nm,"[12]; blank 0.050, untreated 0.463",0.195
same,efficacy (%),[13],92%
same,optical density at 620 nm,"[13]; blank 0.044, untreated 0.701",0.095
same,efficacy (%),[14],52%
same,optical density at 620 nm,"[14]; blank 0.046, untreated 0.374",0.203
same,efficacy (%),[15],90%
same,optical density at 620 nm,"[15]; blank 0.054, untreated 0.233",0.073
same,efficacy (%),[16],98%
same,optical density at 620 nm,"[16]; blank 0.054, untreated 0.253",0.059
same,efficacy (%),[17],56%
same,optical density at 620 nm,"[17]; blank 0.035, untreated 0.449",0.218
same,efficacy (%),[18],68%
same,optical density at 620 nm,"[18]; blank 0.052, untreated 0.498",0.197
same,efficacy (%),[19],93%
same,optical density at 620 nm,"[19]; blank 0.048, untreated 0.257",0.064
same,efficacy (%),[20],82%
same,optical density at 620 nm,"[20]; blank 0.055, untreated 0.675",0.165
same,efficacy (%),[21],47%
same,optical density at 620 nm,"[21]; blank 0.053, untreated 0.941",0.528
same,efficacy (%),[22],95%
same,optical density at 620 nm,"[22]; blank 0.046, untreated 0.378",0.062
same,efficacy (%),[23],44%
same,optical density at 620 nm,"[23]; blank 0.052, untreated 0.528",0.319
same,efficacy (%),[24],52%
same,optical density at 620 nm,"[24]; blank 0.054, untreated 0.410",0.225
same,efficacy (%),[25],81%
same,optical density at 620 nm,"[25]; blank 0.044, untreated 0.414",0.115
same,efficacy (%),[26],48%
same,optical density at 620 nm,"[26]; blank 0.055, untreated 0.701",0.388
same,efficacy (%),[27],54%
same,optical density at 620 nm,"[27]; blank 0.047, untreated 0.357",0.188
same,efficacy (%),[28],99%
same,optical density at 620 nm,"[28]; blank 0.044, untreated 0.354",0.046
same,efficacy (%),[29],86%
same,optical density at 620 nm,"[29]; blank 0.047, untreated 0.427",0.100

# Reference: patent US20240334934A1, “FUNGICIDE MIXTURE” (priority 2021, published 2024)
